Laboratory results taken from patent publication US11365200B2, “ATF3 induction compounds” (TAIPEI MEDICAL UNIVERSITY, priority 2017, dated 2022).

Legend:
[1] = Animal model for obesity (45% high fat diet); format: in vivo; conditions: HFD-fed WT mice
[2] = Echocardiography after transverse aortic banding (TAB) or sham surgery; format: in vivo, mice; conditions: for EF / FS / IVSd / IVSs / LVIDd / LVIDs / LVPWd / LVPWs / Heart Rate: i.p. treatment twice a week, echocardiography, mean; for Heart Rate: in bpm (unit assumed)
Description: For echocardiography, mice were anesthetized with pentobarbital (40 mg/kg body weight, i.p.) and then measurements were taken with ultrasound equipment (ATL Philips IE33, Ultrasound Machine System, CA, U.S.A.) using a 15-MHz probe. The left ventricular posterior wall thickness (LVPW), inter-ventricular septum thickness (IVS), and left ventricular lumen diameter at both end-systolic and end-diastolic phases were measured digitally on the M-mode tracings and averaged for three cardiac cycles. Fractional shortening (FS) and ejection faction (EF) were then calculated.
Male mice (weighing 25-30 g) were anesthetized by intraperitoneal injection of chloral hydrate (125 mg/kg). The TAB procedure was performed according to the description by Hu et al. (Hu P, Zhang D, Swenson L, Chakrabarti G, Abel E D, and Litwin S E (2003) Minimally invasive aortic banding in mice: effects of altered cardiomyocyte insulin signaling during pressure overload. Am J Physiol Heart Circ Physiol 285:H1261-H1269). Echocardiography was performed at week 10 after TAB or sham surgery.
The experimental timeline for TAB and ST32da therapy was as follows. Mice were pre or post treated with intraperitoneal ST32da (0.2 mg/kg) twice a week from 4th to 10th week after TAB procedure. Echocardiographic measurements were performed on mice before (week 4) and after (week 10) ST32da, ST32db, ST32c therapy in both the procedure group and the nonprocedure group. Parameters, including interventricular septum thickness at diastole (IVSd) and systole (IVSs), left ventricular internal diameter at diastole (LVIDd) and systole (LVIDs), left ventricular posterior wall thickness at diastole (LVPWd) and systole (LVPWs), fractional shortening of left ventricle, ejection fraction of left ventricle (EF), and heart rate (HR) are shown.

ATF3 = ATF3 promoter luciferase platform (pGL4-ATF3 stable clones) for screening ATF3 inducers; format: cell-based; conditions: pGL4-ATF3 transfected 3T3-L1 preadipocytes and H9C2 cardiomyocytes
Excerpt: The disclosure is directed to chromenone derivatives used as an ATF3 inducer compound and for treating and/or preventing obesity and obesity-related disorders. The compounds of this disclosure are obtained by: (1) transfecting a special DNA sequence of ATF3 (pGL4-ATF3) into 3T3-L1 preadipocytes and H9C2 cardiomyocytes; (2) using the stable clone as a platform for screening of drug for anti-obesity, anti-atherosclerosis, anti-cardiovascular disease and promotion of white-to-brown adipocyte transdifferentiation; and (3) using the platform for special drug screening. […] The invention further finds that these compounds have an inhibitory effect on obesity and obesity-induced diabetes and a facilitatory effect on white-to-brown adipocyte transdifferentiation, thereby increasing the body energy expenditure and suppressing diabetes. In addition, these compounds also can inhibit high blood pressure or hypoxia induced cardiomyopathy to increase heart function.
The invention uses a platform of ATF3 promoter luciferase to select AT3 inducer and confirms that these selected compounds can be used as anti-obesity, anti-diabetes and anti-heart disease drugs in view of the fact that these compounds have an inhibitory effect on obesity and obesity-induced diabetes and inhibition of high blood pressure or hypoxia induced cardiomyopathy, thereby increasing heart function. The platform of ATF3 promoter luciferase is created by transfecting a DNA sequence of ATF3 (pGL4-ATF3) into 3T3-L1 preadipocytes and H9C2 cardiomyocytes and using the stable clones as a platform for screening of drugs for anti-obesity, anti-atherosclerosis, anti-cardiovascular disease and promotion of white-to-brown adipocyte transdifferentiation. […]

[3] = GTT and ITT assays in HFD-fed mice; format: in vivo; conditions: HFD-fed WT mice, 0.5 mg/kg/day or 1 mg/kg/day
Description: Mice were fasted overnight for 16 h before receiving an intraperitoneal administration of 1.5 g glucose/kg body weight in saline. Blood samples were collected from the tail vein by tail snipping at 0, 15, 30, 45, 60, and 120 min, and plasma glucose and insulin levels were determined from those samples. An ITT was performed on mice after 1 h of fasting. Animals were intraperitoneally injected with 1.0 U insulin/kg body weight in saline. Blood samples were drawn from the tail vein at 0, 15, 30, 45 and 60 min for the measurement of plasma glucose levels. Plasma glucose levels in blood samples collected from tail veins were determined using a commercially available glucose meter (OneTouch Ultra blood glucose meter, LifeScan, Milpitas, Calif.). After the isolation of plasma from blood samples, insulin levels were determined by ELISA (Mercodia, Winston Salem, N.C.). To evaluate the degree of insulin resistance, values were calculated using the following homeostatic model of assessment of insulin resistance (HOMA-IR) formula: fasting glucose (in mg/dl)×fasting insulin (in mU/ml)/405.)

[4] = TAB mice, week 4 to 10 after TAB

| SMILES | TAB-induced LV dilatation ([2]; TAB mice) | contractility ([2]; TAB mice) | EF [2, 4] | FS [2, 4] | IVSd [2, 4] | IVSs [2, 4] | LVIDd [2, 4] | LVIDs [2, 4] | LVPWd [2, 4] | LVPWs [2, 4] | Heart Rate [2, 4] | EF ([2]; sham mice, week 4 to 10) | FS ([2]; sham mice, week 4 to 10) | IVSd ([2]; sham mice, week 4 to 10) | IVSs ([2]; sham mice, week 4 to 10) | LVIDd ([2]; sham mice, week 4 to 10) | LVIDs ([2]; sham mice, week 4 to 10) | LVPWd ([2]; sham mice, week 4 to 10) | LVPWs ([2]; sham mice, week 4 to 10) | Heart Rate ([2]; sham mice, week 4 to 10) | other results |
| --- | --- | --- | --- | --- | --- | --- | --- | --- | --- | --- | --- | --- | --- | --- | --- | --- | --- | --- | --- | --- | --- |
| CC1Cc2c(c3ccc4ccccc4c3oc2=O)O1 (stereo not shown) [ST32c, 2-methyl-1H-benzo[h]furo[3,2-c]chromen-11(2H)-one] | attenuated TAB-induced LV dilatation | increased contractility | 86.500% | 54.500% | 1.350 mm | 1.950 mm | 3.350 mm | 1.700 mm | 1.350 mm | 2.000 mm | 340.000 | 79.000% | 41.333% | 0.800 mm | 1.367 mm | 3.733 mm | 2.200 mm | 0.800 mm | 1.333 mm | 318.667 | HFD-induced obesity (body weight) ([1]; 0.5 mg/kg/day, FIG. 7): could prevent HFD-induced obesity; ATF3 expression (screening for ATF3 inducers) (ATF3): induction of the above-mentioned ATF3 expression |
| C[C@@H]1Oc2c(c(=O)oc3c2ccc2ccccc23)[C@H]1C [ST32da, (1R,2S)-1,2-dimethyl-1H-benzo[h]furo[3,2-c]chromen-11(2H)-one] | attenuated TAB-induced LV dilatation | increased contractility | 75.000% | 41.000% | 1.200 mm | 1.600 mm | 3.600 mm | 2.500 mm | 1.000 mm | 1.600 mm | 294.000 | 81.000% | 44.000% | 0.767 mm | 1.400 mm | 3.833 mm | 2.133 mm | 0.800 mm | 1.400 mm | 303.667 | HFD-induced obesity (percent of initial body weight) ([1]; 0.5 mg/kg/day or 1 mg/kg/day i.p., FIG. 5A left): could prevent HFD-induced obesity; adipose depot mass including iWAT, eWAT, mWAT, rWAT and BAT ([1]; 0.5 mg/kg/day or 1 mg/kg/day i.p., FIG. 5B): decreased adipose depot mass; liver weights ([1]; 0.5 mg/kg/day or 1 mg/kg/day i.p., FIG. 5C): did not affect liver weights; glucose tolerance (glucose tolerance test) ([3]; FIG. 5D): enhanced glucose tolerance; insulin sensitivity (insulin tolerance test) ([3]; FIG. 5E): improved inulin sensitivity; ATF3 expression (screening for ATF3 inducers) (ATF3): induction of the above-mentioned ATF3 expression |
| C[C@@H]1c2c(c3ccc4ccccc4c3oc2=O)O[C@@H]1C [ST32db, (1R,2R)-1,2-dimethyl-1H-benzo[h]furo[3,2-c]chromen-11(2H)-one] | attenuated TAB-induced LV dilatation | increased contractility | 84.750% | 48.250% | 1.050 mm | 1.750 mm | 3.600 mm | 1.850 mm | 1.050 mm | 1.700 mm | 301.000 | 81.667% | 44.667% | 0.800 mm | 1.533 mm | 4.067 mm | 2.233 mm | 0.800 mm | 1.433 mm | 318.500 | HFD-induced obesity (body weight) ([1]; 1 or 10 mg/kg/day, FIG. 6A): could prevent HFD-induced obesity; ATF3 expression (screening for ATF3 inducers) (ATF3): induction of the above-mentioned ATF3 expression |
